US20250295776A1, “CLEAVAGE RESISTANT CD16 CONSTRUCTS AND USES THEREOF” (Celularity Inc., priority 2022, published 2025)

What was measured:
[1] = tested on: CD34+ cells; experiment: NK cell differentiation of compound-cultured cells (flow cytometry); assay type: cell-based, human
From the text: (§1) UCB CD34+ cells were cultivated in presence of cytokines including thrombopoietin, SCF, Flt3 ligand, IL-7, IL-15 and IL-2 for 35 days to produce three-stage NK cells, as described in Example 1. Multi-color flow cytometry was used to determine the phenotypic characteristics of three-stage NK cells.
(§2) For biological testing, the compounds were provided to culture to evaluate their effects on NK cell expansion and differentiation. Specifically, donors of CD34+ cells (StemCell Technology) were thawed and expanded in vitro following NK culture protocol. During the first 14 days of the culture, each CRL compounds was dissolved in DMSO and added to the culture at 10 μM concentration. SR1 (at 10 μM) served as a positive control compound, while DMSO alone without any compound served as a negative control. At the end of the culture on Day 35, cell expansion, natural killer (NK) cell differentiation and cytotoxicity of the cells against K562 tumor cell line were characterized. Due to the large number of the compounds, the testing was performed in two experiments, CRL1-11 and CRL 12-22. The same donors were used for each experiment. Positive and negative controls were also included in both experiments.

[2] = tested on: CD34+ cells; experiment: NK cell expansion in 35-day three-stage culture with CRL compounds; assay type: cell-based, human; details: for cell expansion compared to SR1: 10 μM, Day 35; for expansion, differentiation and cytotoxicity profiles compared to SR1: PNK-007 culture
From the text: as §1, §2

[3] = tested on: K562 tumor cell line; experiment: Cytotoxicity of compound-cultured cells against K562; assay type: cell-based; details: 10:1 E:T ratio
Method: as §2
Cytotoxicity assay was run using compound cultured cells against K562 tumor cells at 10:1 effector to target ratio (FIGS. 5A-5B) to evaluate cell functions.

[4] = tested on: CD34 cells; experiment: CD34 cell expansion at Day 14 of the culture with CRL compounds; assay type: cell-based, human; details: 10 μM
Method: as §2

[5] = tested on: HER2+ NCI-N87 gastric tumor cell line; experiment: xCELLigence real time cell analysis ADCC assay with trastuzumab against NCI-N87; assay type: cell-based; details: 4 h and 24 h; E:T ratio of 2:1
Method: The HER2^+ NCI-N87 gastric tumor cell line was used as the target cells. CD16 variant transduced CYNK cells were thawed followed by two days recovery were used as the effector cells. […] Target cells were seeded at 8×10^4 cells/well in the 96-well plates in 100 μl assay buffer for 24 hours at 37° C. in 5% CO2. […] CYNK cells were added post 30 minutes antibodies incubation at 37° C. with 5% CO2.
The xCELLigence real time cell analysis (RTCA) system (ACEA Biosciences, San Diego, CA) was used for the determination of the ADCC response mediated by the combination of antibody and effector cells. This system can determine the real time proliferation or cell death in each well of a specialized 96-well plate with electrodes attached to the bottom E-plate by measuring cell adherence as determined by the impedance of the electrical signal that passes through the plate. The more cells that are attached to the bottom of the well the higher the resulting impedance or cell index that is measured. The cell index over time in wells with effector cells, antibody, and target is compared to the cell index in wells with target alone and is converted to a percent cytolysis.
Target cells were incubated with the effector cells in the presence of the antibodies in 200 μl final volume for 24 hours. The xCELLigence software was then used to determine the percent cytotoxicity at 4 and 24 hours of co-culture time.

[6] = tested on: CD16; experiment: Shedding assay of CD16 variants transduced CYNK cells (PMAi 2 h); assay type: cell-based, human; details: for CD16 shedding percentage: post 2 h PMAi stimulation, n=6 donors, Lentigen LVV
Method: Non-transduced (NT) CYNK cells were used as a control. After 2-hour stimulation, cells from each treatment condition were then washed twice with FACS buffer (PBS with 0.5 mM EDTA and 2% FBS) and incubated human Fc block (BD Biosciences, Cat #564220) at room temperature for 10 minutes. Staining was then performed with anti-human CD16 PE (BD Biosciences, Cat #556619), anti-human CD56 APC (BD Biosciences, Cat #555518), and anti-human CD3 APC-H7 (BD Biosciences, Cat #560176), or with the corresponding isotype controls for 30 minutes at 4° C. Following washing 2× with FACS buffer the viability stain 7-Aminoactinomycin D (7-AAD) (BD Biosciences, Cat #559925) was added to all stained samples and incubated for ten minutes prior to data acquisition. The data was acquired on a […] (BD Biosciences, San Jose, CA) and analyzed in FlowJo (Tree Star, Ashland, OR). The data were expressed as % CD56^+CD16+ cells gated under 7-AAD^− cells. Setting of the % positive gate was done using isotype-stained samples as controls.

[7] = tested on: CD16; experiment: CD16VP shedding assay (PMA/ionomycin); assay type: cell-based, human
[8] = tested on: CD16; experiment: NK surface markers and CD16 expression of PNK-CD16VP cells (flow cytometry, day 35); assay type: cell-based, human; details: n=8
Method: Non-transduced PNK cells (NT) served as a control. […] IgG was used as ADCC control. In vivo anti-tumor activity was assessed in a Daudi disseminated Xenograft model in NSG mice. […] Tumor burden in mice was monitored by Bioluminescence Imaging (BLI). Statistical differences between the groups were calculated using paired t-test using Prism.
Cell Expansion and Characterization: Cell expansion was recorded during the culture process.

[9] = tested on: CD16; experiment: CD16 expression of CD16 variants transduced CYNK cells (flow cytometry); assay type: cell-based, human
Method: (§3) Human placental CD34+ cells were transduced with a lentivirus vector expressing a CD16 variants as indicated and cultured for 35 days in the presence of cytokines, including thrombopoietin, SCF, Flt3 ligand, IL-7, IL-15 and IL-2, to generate CYNK cells.
The phenotype of CYNK cells was analyzed by multicolor flow cytometry. CYNK cells were washed and stained with fluorochrome-conjugated antibodies diluted in staining buffer [2% fetal bovine serum (FBS) in phosphate buffered saline (PBS)] according to the manufacturer's protocol. Dead cells were labelled with the Live/Dead Fixable Aqua Stain (Invitrogen, Cat #L34957) and gated out. Data were acquired on BD Fortessa X20 flow cytometer (BD Biosciences) and were analyzed using FlowJo software. The data were expressed as % positive cells gated under CD56+CD3-Aqua− single cells based on the viability staining used. Setting of the % positive gate was done using the corresponding isotype-stained samples as controls.

[10] = tested on: HER2+ NCI-N87 gastric tumor cell line; experiment: Cytokine secretion assay (Luminex) of CD16 variants transduced CYNK cells with NCI-N87; assay type: cell-based
Method: Two-day in vitro recovered CYNK cells were used in this assay as the effector cells. The HER2^+ NCI-N87 gastric tumor cell line was used as the target cell. […] The supernatant was then collected after 24 h and used for downstream analysis. The cytokine concentrations were determined by Luminex analysis using a customer selected MILLIPLEX MAP magnetic bead kit (EMD Millipore, Billerica, MA, Cat #HCD8MAG-15K-07 for GM-CSF, TNF-α, and IFN-γ) according to the protocol provided by the manufacturer. The data were analyzed using Belysa software (Millipore Sigma).

[11] = tested on: human placental CD34+ cells; experiment: Fold expansion of CD16 variants transduced CYNK cells; assay type: cell-based
From the text: as §3

[12] = in the presence of Trastuzumab, E:T ratio of 1:1
[13] = in the presence of trastuzumab and NCI-N87
[14] = MOI 200, Myc tag, Sirion Bio LVV

CC(C)c1csc2c(NCCc3c[nH]c4ccccc34)nc(-c3cncc(C#N)c3)nc12 [CRL17, 5-(4-((2-(1H-indol-3-yl)ethyl)amino)-7-isopropylthieno[3,2-d]pyrimidin-2-yl)nicotinonitrile]
CD56+/CD11a+ subpopulation compared to SR1 [1]: increased
cell expansion compared to SR1 [2]: slightly less expansion
killing activities compared to cells cultured with SR1 [3]: increased killing activities

CC(C)c1csc2c(NCCc3c[nH]c4ccccc34)nc(-c3cncc(F)c3)nc12 [CRL18, N-(2-(1H-indol-3-yl)ethyl)-2-(5-fluoropyridin-3-yl)-7-isopropylthieno[3,2-d]pyrimidin-4-amine]
CD56+/CD11a+ subpopulation compared to SR1 [1]: increased
cell expansion compared to SR1 [2]: slightly less expansion
killing activities compared to cells cultured with SR1 [3]: increased killing activities

Fc1cncc(-c2nc(NCCc3c[nH]c4ccccc34)c3occc3n2)c1 [CRL19, N-(2-(1H-indol-3-yl)ethyl)-2-(5-fluoropyridin-3-yl)furo[3,2-d]pyrimidin-4-amine]
cell expansion compared to SR1 [2]: supported cell expansion the best
expansion, differentiation and cytotoxicity profiles compared to SR1 [2]: very similar
CD34 cell expansion [4]: achieved the highest CD34 cell expansion

Cc1cncc(-c2nc(NCCc3c[nH]c4ccccc34)c3occc3n2)c1 [CRL20, N-(2-(1H-indol-3-yl)ethyl)-2-(5-methylpyridin-3-yl)furo[3,2-d]pyrimidin-4-amine]
cell expansion compared to SR1 [2]: supported cell expansion the best
expansion, differentiation and cytotoxicity profiles compared to SR1 [2]: very similar
CD34 cell expansion [4]: achieved the highest CD34 cell expansion

Cc1cncc(-c2nc(NCCc3c[nH]c4ccccc34)c3scc(C(C)C)c3n2)c1 [CRL21, N-(2-(1H-indol-3-yl)ethyl)-7-isopropyl-2-(5-methylpyridin-3-yl)thieno[3,2-d]pyrimidin-4-amine]
CD56+/CD11a+ subpopulation compared to SR1 [1]: increased
cell expansion compared to SR1 [2]: slightly less expansion
killing activities compared to cells cultured with SR1 [3]: increased killing activities

N#Cc1cncc(-c2nc(NCCc3c[nH]c4ccccc34)c3occc3n2)c1 [CRL22, 5-(4-((2-(1H-indol-3-yl)ethyl)amino)furo[3,2-d]pyrimidin-2-yl)nicotinonitrile]
cell expansion compared to SR1 [2]: supported cell expansion the best
expansion, differentiation and cytotoxicity profiles compared to SR1 [2]: very similar
CD34 cell expansion [4]: achieved the highest CD34 cell expansion

CD16VP: high affinity (158 Val) and proteinase cleavage resistant (197Pro) CD16 variant
cytotoxicity change (CYNK+Trastuzumab − CYNK+IgG) compared to NT [5]: significant difference
CD16 shedding resistance post PMAi stimulation ([6]; 6 donors): Yes
CD16 shedding percentage [6]: 4.3%±3.0%
CD16VP expression after activation [7]: resistant to shedding
CD16 expression [8]: ~65%
CD16 expression ([9]; 6 donors): 61.9% ± 15.4%
GM-CSF secretion against NCI-N87 [10, 12]: 5.4 ± 2.7 ng/1 × 10^6 cells
IFNg secretion against NCI-N87 [10, 12]: 1.8 ± 1.6 ng/1 × 10^6 cells
TNFa secretion against NCI-N87 [10, 12]: 0.8 ± 0.3 ng/1 × 10^6 cells
GM-CSF secretion compared to NT [10, 13]: significant difference

Construct #1: CD16 variant: 176 V (also referred to as 158 V); 197 Glycine (G); with or without Myc tag
fold expansion compared to CD16VP and NT ([11]; Lentigen LVV, n=6 donors): comparable fold expansion
fold expansion compared to CD16VP ([11]; Myc tag, Sirion Bio LVV): comparable fold expansion
cytotoxicity change (CYNK+Trastuzumab − CYNK+IgG) compared to NT [5]: significant difference
CD16 shedding post PMAi stimulation ([6]; Myc tag, Sirion Bio LVV): trend of shedding resistance
CD16 shedding percentage [6]: 9.4%±8.5%
CD16 expression at Day10, Day35 and post thaw compared to CD16VP ([9]; Lentigen LVV, 6 donors): comparable CD16 expression
CD16 expression at Day10, 21, 28, 35 and 40 compared to CD16VP [9, 14]: comparable CD16 expression
CD16 expression at Day 10 compared to CD16VP [9, 14]: comparable CD16 expression
GM-CSF secretion compared to NT [10, 13]: significant difference
cytokine secretion (IFNg, TNFa and GM-CSF) compared to CD16VP [10, 13]: no significant difference
